In PubChem BioAssay (NCI):
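The concentration for 50% growth inhibition is given as GI50. The concentration for full growth arrest is given as TGI.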

Columns and labels:
Experiment in all cases: NCI-60 cell line screen, 384-well format
SF-268 CNS = tested on: SF-268 CNS
OVCAR-4 ovarian = tested on: OVCAR-4 ovarian
OVCAR-5 ovarian = tested on: OVCAR-5 ovarian
PC-3 prostate = tested on: PC-3 prostate
COLO 205 colon = tested on: COLO 205 colon
IGROV1 ovarian = tested on: IGROV1 ovarian
HOP-92 NSCLC = tested on: HOP-92 NSCLC
A549 NSCLC = tested on: A549 NSCLC
M14 melanoma = tested on: M14 melanoma
SW-620 colon = tested on: SW-620 colon
HCC-2998 colon = tested on: HCC-2998 colon
UACC-62 melanoma = tested on: UACC-62 melanoma
U251 glioblastoma = tested on: U251 glioblastoma
K-562 leukemia = tested on: K-562 leukemia
SK-MEL-5 melanoma = tested on: SK-MEL-5 melanoma
NCI-H23 lung = tested on: NCI-H23 lung
MALME-3M melanoma = tested on: MALME-3M melanoma
UO-31 renal = tested on: UO-31 renal
MDA-MB-231 breast = tested on: MDA-MB-231 breast
OVCAR-3 ovarian = tested on: OVCAR-3 ovarian
CAKI-1 renal = tested on: CAKI-1 renal
DU-145 prostate = tested on: DU-145 prostate
MDA-MB-435 melanoma = tested on: MDA-MB-435 melanoma
SK-MEL-2 melanoma = tested on: SK-MEL-2 melanoma
TK-10 renal = tested on: TK-10 renal
UACC-257 melanoma = tested on: UACC-257 melanoma
NCI-H460 NSCLC = tested on: NCI-H460 NSCLC
RXF 393 renal = tested on: RXF 393 renal
MCF7 breast = tested on: MCF7 breast
HOP-62 NSCLC = tested on: HOP-62 NSCLC
SK-MEL-28 melanoma = tested on: SK-MEL-28 melanoma
A498 renal = tested on: A498 renal
SF-539 CNS = tested on: SF-539 CNS
OVCAR-8 ovarian = tested on: OVCAR-8 ovarian
RPMI-8226 leukemia = tested on: RPMI-8226 leukemia
T-47D breast = tested on: T-47D breast
SN12C renal = tested on: SN12C renal
BT-549 breast = tested on: BT-549 breast
HCT-116 colon = tested on: HCT-116 colon
SK-OV-3 ovarian = tested on: SK-OV-3 ovarian
LOX IMVI melanoma = tested on: LOX IMVI melanoma
ACHN renal = tested on: ACHN renal
786-0 renal = tested on: 786-0 renal
NCI-H226 lung = tested on: NCI-H226 lung
NCI/ADR-RES ovarian = tested on: NCI/ADR-RES ovarian
KM12 colon = tested on: KM12 colon
HCT-15 colon = tested on: HCT-15 colon
SF-295 CNS = tested on: SF-295 CNS
HT29 colon = tested on: HT29 colon
SNB-19 CNS = tested on: SNB-19 CNS

CC[C@@H]1c2c(C#N)ncn2-c2cnc(Nc3ccc(C(=O)NC4CCN(C5CCN(CC6CC6)CC5)CC4)cc3OC)nc2N1C1CCCC1
GI50 (SF-268 CNS): 25.1 nM
TGI (SF-268 CNS): 197 nM
GI50 (OVCAR-4 ovarian): 125 nM
TGI (OVCAR-4 ovarian): 273 nM
GI50 (OVCAR-5 ovarian): 53 nM
TGI (OVCAR-5 ovarian): 204 nM
GI50 (PC-3 prostate): 53.8 nM
TGI (PC-3 prostate): 302 nM
GI50 (COLO 205 colon): 19.8 nM
TGI (COLO 205 colon): 110 nM
GI50 (IGROV1 ovarian): 44.9 nM
TGI (IGROV1 ovarian): 1660 nM
GI50 (HOP-92 NSCLC): 43.3 nM
TGI (HOP-92 NSCLC): 404 nM
GI50 (A549 NSCLC): 41.7 nM
TGI (A549 NSCLC): 171 nM
GI50 (M14 melanoma): 30 nM
TGI (M14 melanoma): 81.9 nM
TGI (SW-620 colon): 44.8 nM
GI50 (HCC-2998 colon): 20.9 nM
TGI (HCC-2998 colon): 48.7 nM
GI50 (UACC-62 melanoma): 32.8 nM
TGI (UACC-62 melanoma): 95.5 nM
GI50 (U251 glioblastoma): 23.3 nM
TGI (U251 glioblastoma): 152 nM
GI50 (K-562 leukemia): 21.1 nM
TGI (K-562 leukemia): 43.8 nM
GI50 (SK-MEL-5 melanoma): 17.2 nM
TGI (SK-MEL-5 melanoma): 65.6 nM
GI50 (NCI-H23 lung): 27.5 nM
TGI (NCI-H23 lung): 61.4 nM
GI50 (MALME-3M melanoma): 134 nM
TGI (MALME-3M melanoma): 263 nM
GI50 (UO-31 renal): 181 nM
TGI (UO-31 renal): 322 nM
GI50 (MDA-MB-231 breast): 44.5 nM
TGI (MDA-MB-231 breast): 158 nM
GI50 (OVCAR-3 ovarian): 15.7 nM
TGI (OVCAR-3 ovarian): 48.4 nM
GI50 (CAKI-1 renal): 137 nM
TGI (CAKI-1 renal): 280 nM
GI50 (DU-145 prostate): 23.9 nM
TGI (DU-145 prostate): 53.8 nM
GI50 (MDA-MB-435 melanoma): 15.7 nM
TGI (MDA-MB-435 melanoma): 38.6 nM
GI50 (SK-MEL-2 melanoma): 13.8 nM
TGI (SK-MEL-2 melanoma): 33.9 nM
GI50 (TK-10 renal): 317 nM
TGI (TK-10 renal): 1740 nM
GI50 (UACC-257 melanoma): 78.5 nM
TGI (UACC-257 melanoma): 201 nM
GI50 (NCI-H460 NSCLC): 16.4 nM
TGI (NCI-H460 NSCLC): 35.1 nM
GI50 (RXF 393 renal): 19.7 nM
TGI (RXF 393 renal): 43.3 nM
GI50 (MCF7 breast): 34.5 nM
TGI (MCF7 breast): 169 nM
GI50 (HOP-62 NSCLC): 28.6 nM
TGI (HOP-62 NSCLC): 76.6 nM
GI50 (SK-MEL-28 melanoma): 60.1 nM
TGI (SK-MEL-28 melanoma): 182 nM
GI50 (A498 renal): 123 nM
TGI (A498 renal): 254 nM
GI50 (SF-539 CNS): 36.5 nM
TGI (SF-539 CNS): 106 nM
GI50 (OVCAR-8 ovarian): 21.7 nM
TGI (OVCAR-8 ovarian): 41.8 nM
GI50 (RPMI-8226 leukemia): 13.9 nM
TGI (RPMI-8226 leukemia): 31.5 nM
GI50 (T-47D breast): 117 nM
TGI (T-47D breast): 241 nM
GI50 (SN12C renal): 103 nM
TGI (SN12C renal): 356 nM
GI50 (BT-549 breast): 54.2 nM
TGI (BT-549 breast): 228 nM
GI50 (HCT-116 colon): 21.4 nM
TGI (HCT-116 colon): 107 nM
GI50 (SK-OV-3 ovarian): 26.1 nM
TGI (SK-OV-3 ovarian): 87.5 nM
GI50 (LOX IMVI melanoma): 28.3 nM
TGI (LOX IMVI melanoma): 59.6 nM
GI50 (ACHN renal): 204 nM
TGI (ACHN renal): 767 nM
GI50 ([…]-0 renal): 116 nM
TGI (786-0 renal): 241 nM
GI50 (NCI-H226 lung): 175 nM
TGI (NCI-H226 lung): 1310 nM
GI50 (NCI/ADR-RES ovarian): 1110 nM
TGI (NCI/ADR-RES ovarian): 2310 nM
GI50 (KM12 colon): 23.9 nM
TGI (KM12 colon): 74.9 nM
GI50 (HCT-15 colon): 137 nM
TGI (HCT-15 colon): 269 nM
GI50 (SF-295 CNS): 75.7 nM
TGI (SF-295 CNS): 1480 nM
GI50 (HT29 colon): 22 nM
TGI (HT29 colon): 48.8 nM
GI50 (SNB-19 CNS): 38.7 nM
TGI (SNB-19 CNS): 269 nM
